For six compounds, EC50 results are on record in US20030176479A1, “Use of selective EP4 receptor agonists for the treatment of liver failure, loss of patency of the ductus arteriosus, glaucoma or ocular hypertension” (priority 2002, published 2003).

Structures are written as SMILES.

The assay deals with T1, rat EP4 receptor (Rattus norvegicus, UniProt P43114).
T1 construct: expressed in transfected cells
T1 sequence (P43114 whole entry): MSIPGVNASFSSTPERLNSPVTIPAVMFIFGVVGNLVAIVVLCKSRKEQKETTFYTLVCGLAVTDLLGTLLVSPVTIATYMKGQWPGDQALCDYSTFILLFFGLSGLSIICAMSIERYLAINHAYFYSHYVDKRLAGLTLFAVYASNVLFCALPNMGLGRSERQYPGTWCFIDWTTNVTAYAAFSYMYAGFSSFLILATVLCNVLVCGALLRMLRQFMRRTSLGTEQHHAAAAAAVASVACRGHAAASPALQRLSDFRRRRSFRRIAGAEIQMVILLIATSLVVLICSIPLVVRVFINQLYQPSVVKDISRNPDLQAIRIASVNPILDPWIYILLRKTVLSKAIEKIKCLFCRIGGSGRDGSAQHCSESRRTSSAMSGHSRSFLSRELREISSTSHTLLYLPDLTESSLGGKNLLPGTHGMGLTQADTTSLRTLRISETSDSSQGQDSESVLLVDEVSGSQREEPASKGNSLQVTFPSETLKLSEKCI
The assay can be described thus: Cyclic AMP elevation in 293S cell lines stably overexpressing recombinant rat EP4 receptors. The conditions noted are these: 293S cells expressing rat EP4, 1 mM IBMX, 12 minutes at 37° C.; read-out: EC50 in the cAMP (rat EP4) elevation assay. It counts as cell-based. The source says:
Determination of Cyclic AMP Elevation in 293S Cell Lines Stably Overexpressing Recombinant Rat EP4 Receptors Assay
cDNA representing the complete open reading frame of the rat EP4 receptor is generated by reverse transcriptase polymerase chain reaction using oligonucleotide primers based on published sequences. The full length coding sequence for the rat EP4 receptor is made in accordance with the procedure in Sando et al., Biochem. Biophys. Res. Comm. 1994, 200, 1329-1333, and RNA from rat kidney (EP4) as templates. 293S cells are transfected with the cloned rat EP4 receptor in pcDNA3 by lipid mediated transfection. Stable cell lines expressing the rat EP4 receptor are established following selection of transfected cells with Geneticin® (Invitrogen Corporation, Carlsbad, Calif.).
Clonal cell lines expressing the maximal number of receptors are chosen following a whole cell ^3H-PGE2 binding assay using unlabeled PGE2 as a competitor. […] Constitutive expression of the receptor in parental 293-S cells is negligible. A stable cell line containing the rat EP4 receptor is grown in Dulbecco's Mosified Eagle Medium/F12 (DMEM/F12) containing 10% fetal bovine serum and G418 (500 μg/ml) to 80% confluency.
cAMP responses in the 293-S/EP4 lines are determined by detaching cells from culture flasks in 1 ml of calcium (Ca++) and magnesium (Mg++) deficient phosphate buffered saline (PBS) via vigorous pounding and then rinsing the cells with calcium (Ca++) and magnesium (Mg++) deficient phosphate buffered saline (PBS). The cells are resuspended in MEM (Minimum Essential Medium), 1% BSA (bovine serum albumin), 50 mM HEPES (N-[2-Hydroxyethyl]piperazine-N′-[2-ethanesulfonic acid]) at 37° C. The cell suspension is counted on a hemacytometer and diluted by adding MEM (Minimum Essential Medium) to a final concentration of 1×10^6 cells/ml, and adding 3-isobutyl-1-methylxanthine (IBMX) to a final concentration of 1 mM. 200 microliters of cell suspension is immediately aliquoted into individual tubes and incubated for 10 minutes, uncovered, at 37° C., 5% CO2, 95% relative humidity. The compound of Formula I or II to be tested in either dimethylsulfoxide (DMSO) or ethanol is then added to cells at 1:100 dilutions such that the final DMSO or ethanol concentration is 1%. Typically, the cells are treated with 6-8 different concentrations (in 1 log increments, such as those described below) of the compound of Formula I or II. Typical concentrations of the compound of Formula I or II in this assay are between 10^−5M to 10^−10M. For example, a six point compound dose response assay tests the compound of Formula I or II at concentrations of 10^−5M, 10^−6M, 10^−7M, 10^−8M, 10^−9M and 10^—10M. Immediately after adding the test compound, the tubes are covered, mixed by inverting two times, and incubated at 37° C. for 12 minutes. Samples are then lysed by incubation at 100° C. for 10 minutes and immediately cooled on ice for 5 minutes to approximately 4° C. Cellular debris is pelleted by centrifugation at 3500×g for 5 minutes at approximately 4° C., and cleared lysates are transferred to fresh tubes. cAMP concentrations are determined using a commercially available ^125I-cAMP radioimmunoassay (RIA) kit (NEK-033, Perkin-Elmer Life Sciences, Inc., Boston, Mass.). The cleared lysates are diluted 1:100 in cAMP RIA assay buffer (included in kit) and centrifuged again. 50 microliters of the resulting supernatant is transferred to a 12×75 mm glass tube and data is collected by scintillation counting using a Wallac Cobra II Gamma Counter (Perkin-Elmer Wallac, Inc., Gaithersburg, Md.). EC50 calculations are performed on a calculator using linear regression analysis on the linear portion of the dose response curves or using Data Fitter.
One may read the EC50 as the concentration needed to bring the measured effect to its halfway point. Turning to `O=C(O)CCCCCCN1C(=O)CC[C@@H]1CC[C@@H](O)Cc1cccc(Cl)c1` [Example 1, 7-{2S-[4-(3-Chloro-phenyl)-3R-hydroxy-butyl]-5-oxo-pyrrolidin-1-yl}-heptanoic acid], the EC50 came out at 0.0088 µM. For `O=C(O)CCCCCCN1C(=O)CC[C@@H]1CC[C@@H](O)Cc1cccc(C(F)(F)F)c1` [Example 2, 7-{2S-[3R-hydroxy-4-(3-trifluoromethyl-phenyl)-butyl]-5-oxo-pyrrolidin-1-yl}-heptanoic acid], the concentration for a half-maximal effect (EC50) was determined as 0.0132 µM. Turning to `O=C1CC[C@H](CCC(O)Cc2cccc(Cl)c2)N1CCCCCCc1nn[nH]n1` (stereo partly drawn) [Example 3, 5S-[4-(3-Chloro-phenyl)-3-hydroxy-butyl]-1-[6-(2H-tetrazol-5-yl)-hexyl]-pyrrolidin-2-one], the EC50 was 0.0331 µM. For `O=C1CC[C@H](CC[C@@H](O)Cc2cccc(C(F)(F)F)c2)N1CCCCCCc1nn[nH]n1` [Example 4, 5S-[3R-Hydroxy-4-(3-trifluoromethyl-phenyl)-butyl]-1-[6-(2H-tetrazol-5-yl)-hexyl]-pyrrolidin-2-one], the EC50 was 0.0702 µM. For `O=C1CCC(CCC(O)Cc2cccc(-c3ccccc3)c2)N1CCCCCCc1nn[nH]n1` (stereo not drawn) [Example 6, 5-(4-Biphenyl-3-yl-3-hydroxy-butyl)-1-[6-(2H-tetrazol-5-yl)-hexyl]-pyrrolidin-2-one], the concentration for a half-maximal effect (EC50) came to 0.175 µM.

Turning to `O=C(O)CCCCCCN1C(=O)CCC1CCC(O)Cc1ccccc1` (stereo not drawn) [Example 9, 7-(2-(3-hydroxy-4-phenyl-butyl)-5-oxo-pyrrolidin-1-yl)-heptanoic acid], the EC50 amounted to 0.0325 µM.
